Consider 10 molecules from patent US9738604B2, “Ethynylbenzene derivatives” (Duke University, priority 2010, dated 2017).

Values after ≈ are worked out from the molar mass of the structure shown. Where two headings read alike, the source gives them in different places. Where only a bound is given, the exact number is not on record here.

One experiment has as its system E. coli W3110RL. In words: microbe, parasite or virus in culture. It is filed as cell-based. As to conditions: for MIC E. coli W3110RL: E. coli with lpxC of R. leguminosarum, 22 hours at 37° C., MTT; for MIC: Escherichia coli, W3110RL, 22 h, read-out: MIC E. coli W3110RL.
Experiment [1] relates to Acinetobacter Baumannii antibiotic susceptible strain (Sus. A.b. Isolate). The experiment can be described thus: Disk diffusion assay, antibiotic susceptible strain. It is filed as cell-based. Also on record: key to diameter of the growth inhibition, Sus. A.b. Isolate: A: no detectable inhibition; B: 6-10 mm; C: 11-15 mm; D: ≧16. As to conditions: 2 μg of compound per disc, disc 6 mm in diameter; for zone of inhibition at 2 µg/disc: Acinetobacter baumannii, read-out: diameter of the growth inhibition, Sus. A.b. Isolate.

Experiment [2] deals with N. gonorrhoeae 35/02. In words: MIC, N. gonorrhoeae drug-resistant strain. It is filed as cell-based. As to conditions: drug-resistant strain 35/02; for MIC: Neisseria gonorrhoeae.
For the next experiment, the system named is P. aeruginosa (PAO1). The experiment can be described thus: MIC, P. aeruginosa. It is filed as cell-based. Conditions: for MIC P. aeruginosa (PAO1): 22 hours at 37° C., MTT; for MIC: Pseudomonas aeruginosa, PAO1, 22 h, read-out: MIC P. aeruginosa (PAO1).
A further experiment has as its system N. gonorrhoeae FA19. The experiment can be described thus: MIC, N. gonorrhoeae drug-sensitive strain. It is filed as cell-based. As to conditions: for MIC: Neisseria gonorrhoeae, read-out: MIC N. gonorrhoeae FA 19.
In another experiment the test system is E. coli W3110. The experiment can be described thus: microbe, parasite or virus in culture. It is filed as cell-based. As to conditions: for MIC: Escherichia coli, W3110, 22 h, read-out: MIC E. coli W3110.
A further experiment deals with E. coli W3110PA. The experiment can be described thus: microbe, parasite or virus in culture. It is filed as cell-based. As to conditions: for MIC E. coli W3110PA: E. coli with lpxC of P. aeruginosa, 22 hours at 37° C., MTT; for MIC: Escherichia coli, W3110PA, 22 h, read-out: MIC E. coli W3110PA.
Experiment [3] deals with Acinetobacter Baumannii multidrug-resistant strain (MDR A.b. Isolate). In words: Disk diffusion assay, multidrug-resistant strain. It is filed as cell-based. Set-up: key to diameter of the growth inhibition, MDR A.b. Isolate: A: no detectable inhibition; B: 6-10 mm; C: 11-15 mm; D: ≧16. Conditions: 2 μg of compound per disc, disc 6 mm in diameter; for zone of inhibition at 2 µg/disc: Acinetobacter baumannii, read-out: diameter of the growth inhibition, MDR A.b. Isolate.

Experiment [4] relates to N. gonorrhoeae 35/02. As to conditions: resistance profile of strain 35/02; cited from earlier work.

Take `C[C@@H](O)[C@H](NC(=O)c1ccc(C#CC#Cc2ccccc2N)cc1)C(=O)NO` [CPD-013, (2S,3R)-2-{4′-[(2″-aminophenyl)buta-1′,3′-diynyl]benzamido}-1,3-dihydroxybutanamide]: the “MIC E. coli W3110RL” value with E. coli W3110RL is given as “C (11-50 μg/mL)”. In experiment [1], the “diameter of the growth inhibition, Sus. A.b. Isolate” value is given as “A”. Further, the “MIC N. gonorrhoeae 35/02” value in the experiment on N. gonorrhoeae 35/02 [2] is recorded as “C (2-4 μg/mL)”. Further, the “MIC P. aeruginosa (PAO1)” value against P. aeruginosa (PAO1) is “B (1-10 μg/mL)”. Also, the “MIC N. gonorrhoeae FA 19” value against N. gonorrhoeae FA19 was “B (0.1-1 μg/mL)”. Moreover, in the experiment with E. coli W3110, the “MIC E. coli W3110” value is “A (key: A: <1 μg/mL; B: 1-10 μg/mL; C: 11-50 μg/mL; D: 51-100 μg/mL; E: >100 μg/mL)”. In addition, the “MIC E. coli W3110PA” value against E. coli W3110PA was “A (<1 μg/mL)”. In [3], the “diameter of the growth inhibition, MDR A.b. Isolate” value is reported as “A”.

Take `CO/N=C(\C(=O)N[C@@H]1C(=O)N2C(C(=O)O)=C(CSc3nc(=O)c(=O)[nH]n3C)CS[C@H]12)c1csc(N)n1` [ceftriaxone, reference compound]: the “diameter of the growth inhibition, Sus. A.b. Isolate” value in [1] is on record as “A”. Also, the MIC with N. gonorrhoeae 35/02 [4] was 0.12 µg/mL (≈ 0.216 µM). The “diameter of the growth inhibition, MDR A.b. Isolate” value in [3] is reported as “A”.

For the molecule `C[C@@H](O)[C@H](NC(=O)c1ccc(C#Cc2ccc(CN3CCOCC3)cc2)cc1)C(=O)NO` [drawing 321], the MIC against N. gonorrhoeae 35/02 [2] and in the experiment on N. gonorrhoeae FA19 was 8 µg/mL (≈ 18.3 µM) each time.

On to `C[C@@](O)(C(F)F)[C@H](NC(=O)c1ccc(C#CC#Cc2ccccc2N)cc1)C(=O)NO` [CPD-067, 4-((2-aminophenyl)buta-1,3-diynyl)-N-((2S,3S)-4,4-difluoro-3-hydroxy-1-(hydroxyamino)-3-methyl-1-oxobutan-2-yl)benzamide], for which the zone of inhibition at 2 µg/disc in experiment [1] and in [3] was 6 to 10 mm each time. Besides, the MIC in the experiment on N. gonorrhoeae 35/02 [2] was 0.1 to 1 µg/mL (≈ 0.234 to 2.34 µM); in the experiment on N. gonorrhoeae FA19, < 0.1 µg/mL.

As to penicillin, the MIC in the experiment on N. gonorrhoeae 35/02 [4] is 6 µg/mL.

In the case of `CC(C)(N)[C@H](NC(=O)c1ccc(C#CC#Cc2ccc(N)cc2)cc1)C(=O)NO` [CPD-040, (2S)-3-amino-2-({4′-[4′-(4′-aminophenyl)buta-1′,3′-diyn-1-yl]phenyl}formamido)-N-hydroxy-3-methylbutanamide], the MIC in the experiment with E. coli W3110RL is 1 to 10 µg/mL (≈ 2.56 to 25.6 µM); with N. gonorrhoeae 35/02 [2] it was 5 to 7 µg/mL (≈ 12.8 to 17.9 µM); with P. aeruginosa (PAO1), < 1 µg/mL; in the experiment on N. gonorrhoeae FA19, 2 to 4 µg/mL (≈ 5.12 to 10.2 µM); in the experiment with E. coli W3110 it was < 1 µg/mL; in the experiment on E. coli W3110PA it was < 1 µg/mL. Also, the zone of inhibition at 2 µg/disc in [1] and in [3] was 6 to 10 mm in each case.

For the molecule `C[C@](O)(c1ccc(O)cc1)[C@H](NC(=O)c1ccc(C#CC#Cc2ccc(N)cc2)cc1)C(=O)NO` [CPD-051, 4-((4-aminophenyl)buta-1,3-diynyl)-N-((2S)-3-hydroxy-1-(hydroxyamino)-3-(4-hydroxyphenyl)-1-oxobutan-2-yl)benzamide], the MIC with E. coli W3110RL was 51 to 100 µg/mL (≈ 109 to 213 µM); in the experiment on P. aeruginosa (PAO1), < 1 µg/mL; in the experiment with E. coli W3110 it was < 1 µg/mL; in the experiment on E. coli W3110PA, < 1 µg/mL. Moreover, the “diameter of the growth inhibition, Sus. A.b. Isolate” value in experiment [1] is on record as “A”. Besides, the “diameter of the growth inhibition, MDR A.b. Isolate” value in experiment [3] is recorded as “A”.

For `CC(C)(N)[C@H](NC(=O)c1ccc(C#CC#Cc2ccccc2N)cc1)C(=O)NO` [CPD-065, (S)-N-(3-amino-1-(hydroxyamino)-3-methyl-1-oxobutan-2-yl)-4-((2-aminophenyl)buta-1,3-diynyl)benzamide], the results for the MIC against N. gonorrhoeae 35/02 [2] and in the experiment with N. gonorrhoeae FA19 were 2 to 4 µg/mL (≈ 5.12 to 10.2 µM) and 0.1 to 1 µg/mL (≈ 0.256 to 2.56 µM), respectively.

As for `C[C@@H](O)[C@H](NC(=O)c1ccc(C#CC#Cc2ccc(N)cc2)cc1)C(=O)NO` [CPD-011, (2S,3R)-2-{4′-[(4″-aminophenyl)buta-1′,3′-diynyl]benzamido}-1,3-dihydroxybutanamide], the “MIC E. coli W3110RL” value against E. coli W3110RL is reported as “B (1-10 μg/mL)”. The “diameter of the growth inhibition, Sus. A.b. Isolate” value in experiment [1] is reported as “A”. For the same molecule, the “MIC N. gonorrhoeae 35/02” value in the experiment on N. gonorrhoeae 35/02 [2] is “D (5-7 μg/mL)”. Also, in the experiment with P. aeruginosa (PAO1), the “MIC P. aeruginosa (PAO1)” value is “A (<1 μg/mL)”. Besides, the “MIC N. gonorrhoeae FA 19” value with N. gonorrhoeae FA19 is reported as “C (2-4 μg/mL)”. In addition, the “MIC E. coli W3110” value in the experiment on E. coli W3110 is given as “A (key: A: <1 μg/mL; B: 1-10 μg/mL; C: 11-50 μg/mL; D: 51-100 μg/mL; E: >100 μg/mL)”. Moreover, the “MIC E. coli W3110PA” value against E. coli W3110PA is “A (<1 μg/mL)”. Further, the “diameter of the growth inhibition, MDR A.b. Isolate” value in experiment [3] is given as “A”.

`CC(C)(O)[C@H](NC(=O)c1ccc(C#CC#Cc2ccccc2N)cc1)C(=O)NO` [CPD-066, (S)-4-((2-aminophenyl)buta-1,3-diynyl)-N-(3-hydroxy-1-(hydroxyamino)-3-methyl-1-oxobutan-2-yl)benzamide]: the values for the MIC against N. gonorrhoeae 35/02 [2] and in the experiment on N. gonorrhoeae FA19 were 2 to 4 µg/mL (≈ 5.11 to 10.2 µM) and 0.1 to 1 µg/mL (≈ 0.255 to 2.55 µM), respectively.
